Patent US10434090B2, “Pharmaceutical composition containing a hypomethylating agent and a histone deacetylase inhibitor” (NIMBLE EPITECH, LLC, priority 2009, dated 2019)

Conditions: reservoir patch, drug at saturation, cladribine in ethanol/DMSO (50/50), entinostat in ethanol/water (2/1), human cadaver epidermis
Description: A feasibility study of transdermal delivery of cladribine and HDAC inhibitors was conducted using the Franz Cell Method. The scope of the ongoing study is to determine the passive transdermal diffusion rate (passive perfusion) of cladribine and multiple HDAC inhibitors for creation of continuous transdermal delivery for induction therapy.
Cladribine was mixed with about 2 percent of a concentration of a thickener comprising a cellulose component to thicken the cladribine composition.
All testing was performed in an incubator at 32 degrees Celsius.
Round pieces of human cadaveric skin were cut out. The patches were placed on top of the skin and mounted in the Franz Cells between the donor compartment and the receiver compartments of the cell. The two compartments were tightened together with a screw-on pinch clamp.
The results of transdermal flux were graphed as a function of time.

For `Nc1nc(Cl)nc2c1ncn2[C@H]1C[C@H](O)[C@@H](CO)O1` [Cladribine], the “lag time before sustained transdermal delivery” value was 10 h and the optimum transdermal flux (32 degrees Celsius, 24 hour) was 170 μg/cm^2/day.
